Assays:
paddy rice = experiment: Test Example 2: test of effect of phytotoxicity reduction; assay type: in vivo; settings: 2 weeks after treatment
Description: (§1) • Component (a) (a-1): compound No. 1 (ref: the aforementioned Table A) • (a-2): compound No. 3 (same as above) • (a-3): compound No. 11 (same as above) • Component (b) the aforementioned (b-1)-(b-15) • Component (c) the aforementioned (c-1)-(c-3) <Preparation of Test Agents> • Carrier: Acetone 5 parts by weight • Surfactant: Benzyloxy polyglycol ether 1 part by weight The above-mentioned carrier and surfactant and 1 part by weight of active compounds (component (a) and component (b) or component (c)) are mixed and the obtained formulations are diluted with water to prepare the test agents of the prescribed chemicals amount (preparations).
In a green house, paddy rice of 2-2.5 leafstage was transplanted to paddy field soil filled in a 1000 cm^2 pot to 2 cm depth and brought to a submerged condition of about 2-3 cm. Five days after the transplantation, prescribed diluted solution of preparation of each active compound and each herbicide in the following table was applied on water surface each singly or simultaneously. After the treatment, the submerged condition of 3 cm was maintained and the grade of phytotoxicity to paddy rice was studied 2 weeks after the treatment. The phytotoxicity was evaluated as 100% in case of complete death and 0% in case of no phytotoxicity.

[1] = system: Monochoria vaginalis Presl; experiment: Test Example 1: effect of the herbicide composition against paddy field weeds (pot test, green house); assay type: in vivo; settings: for pest or weed control at 2.5 g/ha: 2.5 g/ha single; for pest or weed control at 2.5 g/ha / pest or weed control at 5 g/ha / Herbicidal effect (%) MOOVP: 3 weeks after treatment; for pest or weed control at 5 g/ha: 5 g/ha single
Description: as §1
(§2) In a green house, seeds or tubers of Monochoria vaginalis Presl, annual broad-leaves (Lindernia procumbens Philcox, Rotala indica Koehne, Elatine triandra Schk, Ammannia multiflora Roxb., etc.), Cyperus serotinus Rottboel, and Sagittaria pygmaea Miq were inoculated to paddy field soil filled in a 500 cm^2 pot and brought to a submerged condition of about 2-3 cm. At 1.5-2 leafstage of each weed prescribed diluted solution of preparation of each active compound and each herbicide in the following table was applied on water surface each singly or simultaneously. After the treatment, the submerged condition of 3 cm was maintained and the herbicidal effect was studied 3 weeks after the treatment. The herbicidal effect was evaluated as 100% in case of complete death and 0% in case of no effect.
(§3) In the tables, MOOVP represents Monochoria vaginalis Presl, BBBBB represents annual broad-leaves, CYPSE represents Cyperus serotinus Rottboel and SAGPY represents Sagittaria pygmaea Miq.

Sagittaria pygmaea Miq = experiment: as above; assay type: in vivo; settings: for pest or weed control at 2.5 g/ha: 2.5 g/ha single; for pest or weed control at 2.5 g/ha / pest or weed control at 5 g/ha / Herbicidal effect (%) SAGPY: 3 weeks after treatment; for pest or weed control at 5 g/ha: 5 g/ha single
Description: as §1, §2, §3

[2] = system: Cyperus serotinus Rottboel; experiment: as above; assay type: in vivo; settings: for pest or weed control at 2.5 g/ha: 2.5 g/ha single; for pest or weed control at 2.5 g/ha / pest or weed control at 5 g/ha / Herbicidal effect (%) CYPSE: 3 weeks after treatment; for pest or weed control at 5 g/ha: 5 g/ha single
Description: as §1, §2, §3

[3] = as above; assay type: in vivo, annual broad-leaves; settings: 504 h, read-out: Herbicidal effect (%) BBBBB; for pest or weed control at 2.5 g/ha: 2.5 g/ha single; for pest or weed control at 2.5 g/ha / pest or weed control at 5 g/ha: 3 weeks after treatment; for pest or weed control at 5 g/ha: 5 g/ha single
Description: as §2, with “At 1.5-2 leafstage of each weed prescribed diluted solution of preparation of each active compound and each herbicide in the following table was applied on water surface each singly or simultaneously.” left out
as §3

[4] = system: annual broad-leaves (Lindernia procumbens Philcox, Rotala indica Koehne, Elatine triandra Schk, Ammannia multiflora Roxb., etc.); experiment: as above; assay type: in vivo; settings: 3 weeks after treatment
Description: as §2, with “At 1.5-2 leafstage of each weed prescribed diluted solution of preparation of each active compound and each herbicide in the following table was applied on water surface each singly or simultaneously.” left out
as §3

[5] = Pontederia vaginalis, 504 h, read-out: Herbicidal effect (%) MOOVP
[6] = Sagittaria pygmaea, 504 h, read-out: Herbicidal effect (%) SAGPY
[7] = Cyperus serotinus, 504 h, read-out: Herbicidal effect (%) CYPSE

`CCOC(=O)C1=NN(c2ccc(Cl)cc2Cl)C(C)(C(=O)OCC)C1` (stereo not shown) [(c-2), mefenpyr-diethyl] showed a Phytotoxicity % (paddy rice; 500 g/ha single) of 0%.

Work on `O=C(O)C1=NOC(c2ccccc2)(c2ccccc2)C1` [(c-3), isoxadifen] yielded a Phytotoxicity % (paddy rice; 500 g/ha single) of 0%.

Work on `Cc1ccc(NC(=O)NC(C)(C)c2ccccc2)cc1` [(c-1), dymron] yielded a Phytotoxicity % (paddy rice; 450 g/ha single) of 0%.

In the case of `COC(=O)c1ccccc1CS(=O)(=O)NC(=O)Nc1nc(OC)cc(OC)n1` [(b-12), bensulfuron-methyl], the pest or weed control at 2.5 g/ha [1, 5] is reported as 30%, the pest or weed control at 5 g/ha [1, 5] is reported as 60% and the pest or weed control at 2.5 g/ha (Sagittaria pygmaea Miq; [6]) is reported as 50%. It also gave a pest or weed control at 5 g/ha (Sagittaria pygmaea Miq; [6]) of 50%, a pest or weed control at 2.5 g/ha [2, 7] of 40% and a pest or weed control at 5 g/ha [2, 7] of 40%. The pest or weed control at 2.5 g/ha [3] was 50% and the pest or weed control at 5 g/ha [3] was 60%.

For `CCS(=O)(=O)Oc1ccc2c(c1)C(C)(C)CO2` [(b-11), benfuresate], the pest or weed control at 125 g/ha [1, 5] was 0%, the pest or weed control at 250 g/ha [1, 5] was 0% and the pest or weed control at 125 g/ha (Sagittaria pygmaea Miq; [6]) was 10%. For the same compound, the pest or weed control at 250 g/ha (Sagittaria pygmaea Miq; [6]) was 20%, the pest or weed control at 125 g/ha [2, 7] was 20% and the pest or weed control at 250 g/ha [2, 7] was 70%. The pest or weed control at 125 g/ha [3] was 0% and the pest or weed control at 250 g/ha [3] was 0%.

Work on `CCCCOC(=O)[C@@H](C)Oc1ccc(Oc2ccc(C#N)cc2F)cc1` [(b-4), cyhalofop-butyl] yielded a pest or weed control at 90 g/ha [1, 5] of 0%, a pest or weed control at 180 g/ha [1, 5] of 10% and a pest or weed control at 90 g/ha (Sagittaria pygmaea Miq; [6]) of 10%. The pest or weed control at 180 g/ha (Sagittaria pygmaea Miq; [6]) was 20%, the pest or weed control at 90 g/ha [2, 7] was 0% and the pest or weed control at 180 g/ha [2, 7] was 0%. For the same compound, the pest or weed control at 90 g/ha [3] was 0% and the pest or weed control at 180 g/ha [3] was 0%.

In the case of `C#CCN(C)c1c(C#N)cnn1-c1nn2c(c1Cl)CCCC2` [(b-6), pyraclonil], the “Herbicidal effect (%) MOOVP” value ([1]; 50 g/ha single) is reported as 80%, the “Herbicidal effect (%) MOOVP” value ([1]; 100 g/ha single) is reported as 90% and the “Herbicidal effect (%) SAGPY” value (Sagittaria pygmaea Miq; 50 g/ha single) is reported as 50%. For the same compound, the “Herbicidal effect (%) SAGPY” value (Sagittaria pygmaea Miq; 100 g/ha single) was 85%, the “Herbicidal effect (%) CYPSE” value ([2]; 50 g/ha single) was 20% and the “Herbicidal effect (%) CYPSE” value ([2]; 100 g/ha single) was 30%. The “Herbicidal effect (%) BBBBB” value ([4]; 50 g/ha single) was 90% and the “Herbicidal effect (%) BBBBB” value ([4]; 100 g/ha single) was 90%.

Work on `COc1cc(OC)nc(Oc2cccc(Oc3nc(OC)cc(OC)n3)c2C(=O)O)n1` [(b-7), bispyribac-sodium] yielded a pest or weed control at 2.5 g/ha [1, 5] of 0%, a pest or weed control at 5 g/ha [1, 5] of 10% and a pest or weed control at 2.5 g/ha (Sagittaria pygmaea Miq; [6]) of 0%. It also gave a pest or weed control at 5 g/ha (Sagittaria pygmaea Miq; [6]) of 30%, a pest or weed control at 2.5 g/ha [2, 7] of 20% and a pest or weed control at 5 g/ha [2, 7] of 60%. It also gave a pest or weed control at 2.5 g/ha [3] of 10% and a pest or weed control at 5 g/ha [3] of 10%.
